Measurements from patent publication US6696069B2, “Skin care cosmetic compositions containing phosphates and/or sulfates of branched alcohols and/or ethoxylates thereof” (Unilever Home & Personal Care USA, division of Conopco, Inc., priority 2000, dated 2004).
Values joined by “and” are separate entries in the source; they are usually repeats but may differ in a detail not shown here. Identical values can stand only once. Counter-ions that a name gives are not always drawn. Marks after values point to notes of the source that are not given here.

Tests used:
[1] = system: Neonatal human dermal fibroblasts; experiment: Production of procollagen I by fibroblasts (slot blot, densitometry); assay type: cell-based; conditions: for % Increase (+) or % decrease (−−) over control / Average OD (optical density) Reading / Fold increase Over Control: procollagen I; for % Increase (+) or % decrease (−−) over control: positive control, concentration not given; for collagen synthesis by fibroblasts (result in words): text summary of Tables 1 and 5
Description: This example measured production of procollagen I by fibroblasts in response to treatment with various straight chain and branched alcohols alone.
Procollagen I Staining Protocol for Slot Blot
Neonatal human dermal fibroblasts were purchased from Clonetics Corp., San Diego, Calif. All materials for cell culture were purchased from Life Technologies, NY (and used in passages 5-10). Cells were seeded at a density of approximately 10,000/well in the inner 48 wells of a 96-well plate in a medium containing DMEM (Dulbecco's Modified Eagle's Medium), high-glucose supplemented with 2 mM L-glutamine, 10% fetal bovine serum, and antibiotic and antimycotic solutions. Cells were then grown to confluence for 2 days. At confluence, the medium was removed and cells were washed with serum-free DMEM, and each well dosed with 200 μl of a solution of a test compound in serum-free DMEM. Each dosing was replicated in a total of six wells. […] After 24 hours, the test compound solution or the control solution was removed and cells redosed with 100 μl of a solution of a test compound in serum-free DMEM.
Nitrocellulose membrane and 3 sheets of filter paper were soaked in TRIS buffered saline (TBS, pH 7.3.). BioRad slot blot apparatus (BioRad Labs, CA) was set up with 3 sheets filter paper on bottom, membrane on top, and tightened. […] TBS was added per well. Vacuum was used to suck TBS through membrane. The test compound solution or control was vortexed, then 100 μl was loaded per well and gravity filtered. Procollagen from the test solution was bound to the membrane at this point in the procedure. Membrane was removed from the apparatus, excess cut off, and bottom right corner notched for orientation. The membrane was placed in blocking solution (5% milk powder in Dulbecco's phosphate buffered saline) overnight at 4° C., with shaking. The membrane was then incubated for 1.5 hrs at room temperature with 1.5 mL Rat Anti-Human Procollagen Amino-Terminal Ab (Chemicon MAB1912) in TBS with 0.1% BSA (Bovine Serum Albumin) (ratio of antibody to buffer/BSA was 1:100) in a sealed bag with shaking. The membrane was then removed; washed 3 times for 5 minutes in TBS/0.1% Tween. The membrane was then incubated for 1 hour at room temperature in 2 mL of Biotinylated Anti-Rat Peroxidase-Conjugated Ab (Vector Labs) in TBS with 0.1% BSA (ratio of antibody to buffer/BSA was 1:1000) in a sealed bag with shaking. The membrane was then stained using the following solution:
12.5 mg 3-amino 9-ethyl carbazole (Sigma)
3.125 (approximately) mL DMF (N,N-dimethylformamide, from Sigma)
The membrane was stained until color developed and the reaction stopped with 2 washes for 10 minutes in tap water. The blot was scanned on a Bio-Rad GS700 Image Analysis densitometer. Percent change from control was calculated from densitometer readings as follows: [(Reading for test compound−Reading for control)/Reading for control]*100. Control has a reading of 100%. Statistical significance (p value) was calculated using student's t-test.
TGF-B is a positive control, ensuring the integrity of the assay: transforming growth factor beta is known to increase procollagen I in fibroblasts.
This example measured production of procollagen I by fibroblasts in response to treatment with various test compounds.
The experiment was conducted as described in Example 1 above. Fold increase was calculated as a ratio of densitometer reading for cells treated with a test compound over control.

human sebocytes = experiment: Inhibition of sebocyte lipogenesis (14C-acetate incorporation); assay type: cell-based; conditions: for lipogenesis inhibition (result in words): in combination with retinol, in comparison to either alone
[2] = lipogenesis, 1 μM + 1 μM Retinol
[3] = lipogenesis, 1 μM + 10 μM Retinol
[4] = lipogenesis, 10 μM + 1 μM Retinol
[5] = lipogenesis, 10 μM + 10 μM Retinol

In the case of TGF-B [reference compound], the “% Increase (+) or % decrease (−−) over control” value ([1]; Experiment 1) is reported as “+50* %”, the “% Increase (+) or % decrease (−−) over control” value ([1]; Experiment 2) is reported as “+140* %” and the “Average OD (optical density) Reading” value ([1]; Plate 1, 0.001%) is reported as 1.348. For the same compound, the “Fold increase Over Control” value ([1]; Plate 1, 0.001%) was 1.72, the “Average OD (optical density) Reading” value ([1]; Plate 2, 0.001%) was 1.653 and the “Fold increase Over Control” value ([1]; Plate 2, 0.001%) was 1.65.
With Iso-tridecyl Sulfate the “lipogenesis (result in words)” value (human sebocytes; alone or as a salt, Table 2) was “reduced lipogenesis production”, the “lipogenesis inhibition (result in words)” value (human sebocytes) was “improved lipogenesis inhibition” and the “% of Control” value (human sebocytes; [2]) was 70.6* %. For the same compound, the “% of Control” value (human sebocytes; [3]) was 64.4* %, the “% of Control” value (human sebocytes; lipogenesis, 1 μM, alone) was 72.5* % and the “% of Control” value (human sebocytes; [4]) was 56.1* %. The “% of Control” value (human sebocytes; [5]) was 47.5* %, the “% of Control” value (human sebocytes; lipogenesis, 10 μM, alone) was 58.2* % and the “% of Control” value (human sebocytes; lipogenesis, 35.6 μM, alone) was 63.5%. For the same compound, the “% of Control” value (human sebocytes; lipogenesis, 178 μM, alone) was 18.1* %, the “% of Control” value (human sebocytes; lipogenesis, 356 μM, alone) was 7.4* % and the “Average OD (optical density) Reading” value ([1]; Plate 1, 0.0001%) was 1.000. The “Fold increase Over Control” value ([1]; Plate 1, 0.0001%) was 1.28, the “Average OD (optical density) Reading” value ([1]; Plate 1, 0.001%) was 1.223 and the “Fold increase Over Control” value ([1]; Plate 1, 0.001%) was 1.56. For the same compound, the “collagen synthesis by fibroblasts (result in words)” value [1] was “increased collagen production”.
In the case of O=S1(=O)OC(c2ccc(O)cc2)(c2ccc(O)cc2)c2ccccc21 [Phenol Red, reference compound], the activity at 28 µM (human sebocytes; Homo sapiens, lipogenesis, 28 μM, alone, read-out: % of Control) is reported as 91.9%, the activity at 280 µM (human sebocytes; Homo sapiens, lipogenesis, 280 μM, alone, read-out: % of Control) is reported as 58.1% and the “% of Control” value (human sebocytes; lipogenesis, 28 μM, alone) is reported as 92.0% and 79.3% and 84.0%. The “% of Control” value (human sebocytes; lipogenesis, 280 μM, alone) was 61.7* % and 70.6* %.
In the case of Iso-tridecyl Phosphate (Disodium salt), the “% of Control” value (human sebocytes; lipogenesis, 1 μM, alone) is reported as 90.7%, the “% of Control” value (human sebocytes; lipogenesis, 10 μM, alone) is reported as 88.4% and the “% of Control” value (human sebocytes; lipogenesis, 100 μM, alone) is reported as 88.3%.
CC1=C(/C=C/C(C)=C/C=C/C(C)=C/CO)C(C)(C)CCC1 [Retinol, reference compound] was tested, and the activity at 1 µM (human sebocytes; Homo sapiens, lipogenesis, 1 μM, alone, read-out: % of Control) was 91.8%, the activity at 10 µM (human sebocytes; Homo sapiens, lipogenesis, 10 μM, alone, read-out: % of Control) was 106% and the “% of Control” value (human sebocytes; lipogenesis, 1 μM, alone) was 97.4% and 93.2% and 91.5%. The “% of Control” value (human sebocytes; lipogenesis, 10 μM, alone) was 106.0% and 101.8%.
Work on CC(C)CCCCCCCCCCOS(=O)(=O)O [Iso-tridecyl Sulfate, sodium salt] yielded an activity at 33.1 µM (human sebocytes; Homo sapiens, lipogenesis, 33.1 μM, alone, read-out: % of Control) of 54.9%, an activity at 165.5 µM (human sebocytes; Homo sapiens, lipogenesis, 165.5 μM, alone, read-out: % of Control) of 14% and an activity at 331 µM (human sebocytes; Homo sapiens, lipogenesis, 331 μM, alone, read-out: % of Control) of 5.5%.
In the case of Iso-tridecyl Phosphate, the “lipogenesis inhibition (result in words)” value (human sebocytes) is reported as “enhanced inhibition of lipogenisis production”, the “% of Control” value (human sebocytes; [2]) is reported as 78.1* % and the “% of Control” value (human sebocytes; [3]) is reported as 71.6* %. For the same compound, the “% of Control” value (human sebocytes; [4]) was 70.6* %, the “% of Control” value (human sebocytes; [5]) was 66.9* % and the “% of Control” value (human sebocytes; lipogenesis, 100 μM + 1 μM Retinol) was 74.1* %. For the same compound, the “% of Control” value (human sebocytes; lipogenesis, 100 μM + 10 μM Retinol) was 78.2%, the “Average OD (optical density) Reading” value ([1]; Plate 2, 0.0001%) was 2.170 and the “Fold increase Over Control” value ([1]; Plate 2, 0.0001%) was 2.17. For the same compound, the “Average OD (optical density) Reading” value ([1]; Plate 2, 0.001%) was 1.460, the “Fold increase Over Control” value ([1]; Plate 2, 0.001%) was 1.460 and the “collagen synthesis by fibroblasts (result in words)” value [1] was “increased collagen production”.
